For one assay, the system named is OCI-My 5 cells. Kind of assay: Cell proliferation assay (3[H]-thymidine incorporation). As to conditions: OCI-My 5, 0.3 pM-25 nM, 3 days. The assay is classed as cell-based, human. How it is done:
The proliferative status of the cells was determined by measuring ^3[H]-thymidine incorporation.

The next assay has as its system Daudi cells. Kind of assay: Binding of anti-CD138 IgG to Daudi cells. More on the design: species or system human. To be noted: data not shown.
The subject of a further assay is NCI-H929. The experiment in a line: MTS assay (cell viability / metabolic activity). The assay is classed as cell-based, human. As to conditions: 3 days. Here is the method: (§1) Percent cell viability was determined using MTS solution (Promega, Madison, Wis.) by measuring absorbance at 490 nm using a Synergy HT Multi-Detection Microplate Reader (BioTek Instruments, Inc., Winooski, Vt.) with untreated cells being 100%. GraphPad Prism (GraphPad Software Inc., La Jolla, Calif.) was used to analyze data by non-linear regression with the log (inhibitor) vs. the response with a variable slope with the IC50 calculated. Data are expressed as a percentage of maximum metabolic activity. The experiments were performed in triplicate.
(§2) Metabolic activity was determined using MTS solution (Promega) by measuring absorbance at 490 nm using a Synergy HT Multi-Detection Microplate Reader (BioTek Instruments Inc.) with untreated cells being 100%. GraphPad Prism (GraphPad Software Inc.) was used to analyze data by non-linear regression with the log (inhibitor) versus the response with a variable slope. Data are expressed as a percentage of maximum metabolic activity. The experiments were performed in triplicate.

The test system of assay [1] is U266. The experiment in a line: MTS assay (cell viability / metabolic activity). The class given is cell-based, human. To be noted: U266, 3 days. Here is the method: as §1, §2
Background: Formazan colour is commonly taken as a measure of viable cells.

The test system of another assay is MM1-144. Kind of assay: MTS assay (cell viability / metabolic activity). The assay is classed as cell-based, human. To be noted: MM144 (MM1-144), 3 days. Here is the method: as §1, §2
Assay [2] has as its system OCI-My5. Kind of assay: MTS assay (cell viability / metabolic activity). The assay is classed as cell-based, human. To be noted: OCI-My5, 3 days. How it is done:
as §1, §2

The subject of assay [3] is ANBL-6. The experiment in a line: MTS assay (cell viability / metabolic activity). The class given is cell-based, human. To be noted: ANBL-6, 3 days or 7 days. How it is done:
as §1, §2

The test system of assay [4] is U266. Kind of assay: Senescence induced β-gal activity at pH 6 (C12FDG, flow cytometry). The class given is cell-based, human. To be noted: U266, 1 nM, 3 days. Here is the method: (§3) Senescence induced β-galactosidase (β-gal) activity was detected as described previously (Debacq-Chainiaux et al. (2009) Nature Protocols, 4: 1798-1806). […] To induce lysosomal alkalinization, cells were incubated in 100 nM bafilomycin A1 (Sigma) for 1 h. Then cells were incubated for 30 min with the β-gal substrate dodecanoylaminofluorescein di-β-D-galactopyranoside (C12FDG; Invitrogen), which becomes fluorescent after cleavage by β-gal. After washing twice with cold PBS, cells were resuspended in cold PBS containing 1 mM phenylethyl thiogalactoside (PETG), a β-gal inhibitor, and analyzed by flow cytometry for C12-fluorescein.
(§4) Intracellular β-galactosidase (β-gal) activity was measured as an indicator for replicative senescence. […] After treatment, cells were incubated with 100 nM bafilomycin A1 (Sigma) for 1 hour to induce lysosomal alkalinization. Then cells were incubated for 30 minutes with the 33 μM of β-gal substrate dodecanoylaminofluorescein di-β-D-galactopyranoside (C12FDG; Invitrogen), which becomes fluorescent after cleavage to C12-fluorescein. After washing twice with cold PBS, cells were resuspended in cold PBS containing 1 mM phenylethyl thiogalactoside (PETG), a β-gal inhibitor, and analyzed by flow cytometry for C12-fluorescein.
On the technique in general: A flow cytometer gives signals particle by particle.

The subject of assay [5] is OCI-My5. Described as above. The assay is classed as cell-based, human. To be noted: OCI-My5, 1 nM, 3 days (also 4, 6, 7 days). Here is the method:
as §3, §4

Assay [6] deals with ANBL-6. The assay is described as above. The assay is classed as cell-based, human. As to conditions: ANBL-6, 1 nM, 3 days (data not shown). Here is the method:
as §3, §4

A further assay has as its system OCI-My 5 tumors. Kind of assay: OCI-My5 xenograft model in SCID mice. The class given is in vivo, mouse. As to conditions: OCI-My5 s.c., 100 μg i.v. on days 14, 16, 18. The source says:
Eight mice were included in each group.
Each group consisted of eight mice.

The test system of assay [7] is primary myeloma cells from patients. The experiment in a line: Treatment of primary myeloma cells from patients (trypan blue / MTT). The assay is classed as cell-based, human. As to conditions: 25 nM, 72 h. How it is done:
Trypan blue and MTT assays were used to determine the number of viable cells. The percentage of viable recovered cells was calculated based upon the number of viable cells recovered from DMSO-treated control cells, which was arbitrarily designated as 100%.
Percent viable cell recovery was determined by trypan blue staining, with untreated control cells designated as 100%.

Another assay concerns U266 tumors. The experiment in a line: U266 xenograft model in NSG mice. To be noted: U266 s.c., 100 μg on days 14, 16, 18.

Entries after “also recorded” stand apart in the source; their conditions may differ.

Description for U266 tumors: For U266 tumors, NOD scid IL-2 receptor gamma chain knock out (NSG) mice were injected subcutaneously with 1×10^7 U226 cells and treated on days 14, 16 and 18 with 100 μg of the indicated proteins. […] Survival was monitored as well as the size of the tumors.
For U266 tumors, experiments were carried out as described above except that NOD-scid IL2rγ^null (NSG) mice were used.

With “anti-CD138: Unfused human anti-CD138 IgG1 with VH and VL of antibody B-B4 [reference compound]”, the “proliferation (3[H]-thymidine incorporation), result in words” value in the assay with OCI-My 5 cells is given as “did not decrease the ability of the cells to proliferate”. Besides, the “binding to Daudi cells” value with Daudi cells is “did not bind to Daudi cells”. The “cell viability / growth inhibition (MTS assay), result in words” value in the assay with NCI-H929, in the assay with U266 [1], in the assay on MM1-144, in the assay with OCI-My5 [2] and in the assay with ANBL-6 [3] was “no effect” each time. Besides, the “β-gal activity at pH 6 (senescence), result in words” value in the assay on U266 [4] is given as “no increase under any conditions”; with OCI-My5 [5] it was “little or no increase in β-gal activity”; with ANBL-6 [6], “no increases”. In addition, in the assay on OCI-My 5 tumors, the “survival / protection, result in words” value is recorded as “increased survival slightly; also recorded: did not differ significantly from PBS treated mice”. In addition, the “viability of primary myeloma cells, result in words” value in [7] is reported as “little effect”. For the same substance, the “survival / protection against tumor growth, result in words” value with U266 tumors was “significant protection”.
